Here are results for four compounds from US8420884B2, “Models of malignant brain cancer, and therapeutic siRNAs against oncogenic signaling pathways, and methods and kits for uses therefor” (Tufts Medical Center Inc., priority 2008, dated 2013).

One may read the IC50 as the point on the concentration scale where inhibition reaches its midpoint. High values mean a need for much substance, low ones inhibition by little substance.

The test system of test [1] is GBM tumors in conditional EGFR animals. Conditions: animal number 2148; 80 days. How it is done: Bioluminescence was measured noninvasively using the IVIS 200 imaging system (Xenogen). For live imaging, the surface areas of focus for imaging were depilated using commercial depilatory creams. Images were taken 10 min after IP injection of luciferin (225 mg/kg, Xenogen) to allow sufficient time for distribution of luciferin, with a 60 second photon acquisition during which mice were sedated via continuous inhalation of 3% isoflurane. For organ imaging post luciferin injection, animals were incubated for 10 min and perfused transcardially with saline. Bioluminescence imaging was then performed on individually dissected organs. Signal intensity was quantified for defined regions of interest as photon count rate per unit body area per unit solid angle subtended by the detector (units of photons/s/cm^2/steradian). All image analyses and bioluminescent quantification were performed using Living Image software v. 2.50 (Xenogen).
Conditional EGFR animals were examined using bioluminescence imaging at different periods of time after tumor induction with Ad-Cre-recombinase by the methods above.

Test [2] has as its system recurrent and newly diagnosed GBMs. Conditions: unselected patients; phase II; cited from earlier work.
The next test relates to GBMs. The following applies: GBM patients; cited from earlier work.
For the next test, the system named is GBM culture 2227. Description: Cytotoxicity of NXD30001 and 17-AAG in GBM cultures. Type of test: cell-based, mouse. Conditions: GBM 2227; mean of three independent experiments ± standard deviation. How it is done:
(§1) Primary cultures of tumors or newborn mice astrocytes were established as follows: tumors or P0 neonate cortices were excised and minced in 0.25% trypsin (wt/vol) 1 mM EDTA and allowed to disaggregate for 15 min at 37° C. The resulting cell suspension was then strained through a 70-μm cell strainer (Falcon). The single suspension of cells was washed in PBS twice and plated on 0.2% gelatin-coated tissue culture plates. Cells were fed every 24 hr with fresh medium that consisted of DMEM supplemented with 10% heat-inactivated FBS and antibiotics. The primary cultures of astrocytes were routinely stained for markers of astrocytic lineages by immunofluorescence.
(§2) Cytotoxicity of NXD30001 was assessed in GMB cell proliferating cultures obtained from clinical mouse subjects and was compared to that of 17-(Allylamino)-17-demethoxygeldanamycin (17-AAG), an ansamycin antibiotic which binds to HSP90. Data obtained was analyzed as half maximum inhibitory concentration (1050) values (Table 3).

Another test deals with GBM culture 2414. The test is described as above. The class given is cell-based, mouse. Conditions: GBM 2414; mean of three independent experiments ± standard deviation. How it is done: as §1, §2
A further test deals with GBM culture 41. The description is as above. Type of test: cell-based, mouse. The following applies: GBM 41; mean of three independent experiments ± standard deviation. How it is done:
as §1, §2

The test system of another test is GBM culture 42. The test is described as above. Type of test: cell-based, mouse. Conditions: GBM 42; mean of three independent experiments ± standard deviation. How it is done:
as §1, §2

Another test deals with GBM culture 2000. The test is described as above. Type of test: cell-based, mouse. Conditions: GBM 2000; mean of three independent experiments ± standard deviation. How it is done:
as §1, §2

The test system of the next test is GBM culture 46. The description is as above. The class given is cell-based, mouse. Conditions: GBM 46; mean of three independent experiments ± standard deviation. How it is done: as §1, §2
For another test, the system named is GBM culture 2415. The test is described as above. The following applies: GBM 2415; mean of three independent experiments ± standard deviation. The class given is cell-based, mouse. How it is done:
as §1, §2

Another test has as its system GBM-1 cells. The test is described as above. The following applies: mean of three independent experiments ± standard deviation. Type of test: cell-based, mouse. How it is done:
as §1, §2

For the next test, the system named is GBM culture 2231. Described as above. Type of test: cell-based, mouse. Conditions: GBM 2231; mean of three independent experiments ± standard deviation. How it is done:
as §1, §2

Another test has as its system GBM culture 102. The test is described as above. The class given is cell-based, mouse. The following applies: GBM 102; mean of three independent experiments ± standard deviation. How it is done: as §1, §2
The subject of the next test is GBM culture 2734. The description is as above. Conditions: GBM 2734; mean of three independent experiments ± standard deviation. Type of test: cell-based, mouse. How it is done:
as §1, §2

The test system of the next test is GBM-2 cells. The test is described as above. The class given is cell-based, mouse. Conditions: mean of three independent experiments ± standard deviation. How it is done:
as §1, §2

The next test has as its system GBM culture 103. The test is described as above. The following applies: GBM 103; mean of three independent experiments ± standard deviation. Type of test: cell-based, mouse. How it is done: as §1, §2
A further test relates to GBM culture 69. The description is as above. Type of test: cell-based, mouse. Conditions: GBM 69; mean of three independent experiments ± standard deviation. How it is done:
as §1, §2

Entries after “also recorded” stand apart in the source; their conditions may differ.

Take `C#Cc1cccc(Nc2ncnc3cc(OCCOC)c(OCCOC)cc23)c1` [Tarceva, erlotinib]: the “outcome by bioluminescence imaging” value in test [1] is recorded as “essentially cured by treatment; also recorded: essentially been cured of cancer”. For the same compound, the overall efficacy entry in test [2] was “minimal when compared with historical data”.

Consider `CO[C@H]1C[C@@H]2CC[C@@H](C)[C@@](O)(O2)C(=O)C(=O)N2CCCC[C@H]2C(=O)O[C@H]([C@H](C)C[C@@H]2CC[C@@H](OC(=O)C(C)(CO)CO)[C@H](OC)C2)CC(=O)[C@H](C)/C=C(\C)[C@@H](O)[C@@H](OC)C(=O)[C@H](C)C[C@H](C)/C=C/C=C/C=C/1C` [temsirolimus], for which, in the test on GBMs, the “Phase II results of two clinical trials” value is reported as “negative, with no improvement in response rates, progression-free survival or overall survival”.

As for `COc1cc2ncnc(Nc3ccc(F)c(Cl)c3)c2cc1OCCCN1CCOCC1` [gefitinib], the overall efficacy result in [2] is recorded as “minimal when compared with historical data”.

Regarding `C=CCNC1=C2C[C@@H](C)C[C@H](OC)[C@H](O)[C@@H](C)/C=C(\C)[C@H](OC(N)=O)[C@@H](OC)/C=C\C=C(/C)C(=O)NC(=CC1=O)C2=O` [17-AAG, 17-(Allylamino)-17-demethoxygeldanamycin], the IC50 amounted to 712 nM with GBM culture 2227; 205 ± 13.1 nM in the test with GBM culture 2414; 100 ± 5 nM in the test on GBM culture 41; 166 ± 24.9 nM with GBM culture 42; 345 ± 75.5 nM with GBM culture 2000; 91.9 ± 1.4 nM in the test on GBM culture 46. The IC50 in the test with GBM culture 2415 came to 329 ± 50.1 nM; in the test with GBM-1 cells, 208 ± 9.6 nM; with GBM culture 2231, 737 ± 72 nM; in the test with GBM culture 102 it was 626.2 ± 6 nM; in the test with GBM culture 2734 it was 381 nM; in the test with GBM-2 cells, 1100 ± 119 nM. Also, the values for the IC50 in the test on GBM culture 103 and in the test on GBM culture 69 were 794 ± 28.7 nM and 91 nM, respectively.
